The record followed here is ChEMBL document CHEMBL5291721, “A preclinical secondary pharmacology resource illuminates target-adverse drug reaction associations of marketed drugs” (Nat Commun, 2023).

Experiment [1] deals with T1, Alpha-2A adrenergic receptor (Homo sapiens, UniProt P08913).
T1 sequence (P08913 whole entry): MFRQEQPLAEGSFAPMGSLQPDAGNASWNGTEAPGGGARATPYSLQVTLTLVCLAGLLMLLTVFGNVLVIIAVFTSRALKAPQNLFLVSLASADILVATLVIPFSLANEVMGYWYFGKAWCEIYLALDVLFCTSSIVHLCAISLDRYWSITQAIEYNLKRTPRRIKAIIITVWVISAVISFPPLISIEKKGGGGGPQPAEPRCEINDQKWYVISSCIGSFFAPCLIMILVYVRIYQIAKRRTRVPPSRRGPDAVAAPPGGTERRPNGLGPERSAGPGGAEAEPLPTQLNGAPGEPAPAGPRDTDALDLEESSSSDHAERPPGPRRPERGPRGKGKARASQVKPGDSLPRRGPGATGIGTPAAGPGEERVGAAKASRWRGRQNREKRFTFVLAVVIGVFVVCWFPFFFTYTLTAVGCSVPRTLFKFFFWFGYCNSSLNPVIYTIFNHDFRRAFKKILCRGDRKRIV
In kind it is functional, cell-based.

Experiment [2] concerns the target T2, Alpha-2B adrenergic receptor (Homo sapiens, UniProt P18089).
T2 sequence (P18089 whole entry): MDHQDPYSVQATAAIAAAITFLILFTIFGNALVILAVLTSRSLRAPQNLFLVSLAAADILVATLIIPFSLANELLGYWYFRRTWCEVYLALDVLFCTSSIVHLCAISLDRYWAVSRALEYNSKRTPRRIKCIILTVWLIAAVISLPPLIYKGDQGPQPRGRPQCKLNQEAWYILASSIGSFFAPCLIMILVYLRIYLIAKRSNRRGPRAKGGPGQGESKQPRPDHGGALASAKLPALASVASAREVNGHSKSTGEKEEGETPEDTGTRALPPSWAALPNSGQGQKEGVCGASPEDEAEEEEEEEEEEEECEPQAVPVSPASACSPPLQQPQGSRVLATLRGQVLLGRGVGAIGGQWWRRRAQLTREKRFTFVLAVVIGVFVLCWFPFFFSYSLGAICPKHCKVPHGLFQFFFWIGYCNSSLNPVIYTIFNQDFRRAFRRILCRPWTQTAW

Experiment [3] deals with Gamma-aminobutyric acid receptor subunit alpha-1 (Rattus norvegicus, UniProt P62813). In kind it is functional.
Chain of Gamma-aminobutyric acid receptor subunit alpha-1 (P62813 whole entry): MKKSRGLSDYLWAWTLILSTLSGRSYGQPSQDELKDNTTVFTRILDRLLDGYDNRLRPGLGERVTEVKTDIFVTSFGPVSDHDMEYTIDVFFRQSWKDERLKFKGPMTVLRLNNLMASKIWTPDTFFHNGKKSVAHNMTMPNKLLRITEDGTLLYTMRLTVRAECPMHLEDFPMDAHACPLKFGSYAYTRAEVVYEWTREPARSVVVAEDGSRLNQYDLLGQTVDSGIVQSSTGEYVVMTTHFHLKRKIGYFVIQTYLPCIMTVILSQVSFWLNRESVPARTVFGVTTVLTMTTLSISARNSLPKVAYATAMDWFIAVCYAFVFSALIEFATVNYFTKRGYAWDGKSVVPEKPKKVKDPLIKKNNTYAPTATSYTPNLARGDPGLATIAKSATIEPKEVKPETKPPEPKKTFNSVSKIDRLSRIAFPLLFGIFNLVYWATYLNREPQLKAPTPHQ
The target of experiment [4] is 5-hydroxytryptamine receptor 2A (Homo sapiens, UniProt P28223). In kind it is functional, cell-based.
Chain of 5-hydroxytryptamine receptor 2A (P28223 whole entry): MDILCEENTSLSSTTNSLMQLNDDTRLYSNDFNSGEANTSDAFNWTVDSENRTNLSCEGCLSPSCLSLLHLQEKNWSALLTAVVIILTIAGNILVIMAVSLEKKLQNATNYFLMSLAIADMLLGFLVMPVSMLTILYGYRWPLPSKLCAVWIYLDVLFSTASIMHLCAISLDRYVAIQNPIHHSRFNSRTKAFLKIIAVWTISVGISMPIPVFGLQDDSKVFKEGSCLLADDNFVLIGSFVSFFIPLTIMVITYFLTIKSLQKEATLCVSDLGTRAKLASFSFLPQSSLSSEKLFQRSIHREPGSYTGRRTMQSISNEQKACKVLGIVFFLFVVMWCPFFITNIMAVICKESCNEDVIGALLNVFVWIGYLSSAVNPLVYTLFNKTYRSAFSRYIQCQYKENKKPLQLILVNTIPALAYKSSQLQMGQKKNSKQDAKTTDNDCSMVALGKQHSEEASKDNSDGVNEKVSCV
The next experiment concerns the target Mu-type opioid receptor (Homo sapiens, UniProt P35372). The experiment is described as follows: biochemical. In kind it is functional.
The target of experiment [5] is T3, Amine oxidase [flavin-containing] A (Homo sapiens, UniProt P21397).
T3 sequence (P21397 whole entry): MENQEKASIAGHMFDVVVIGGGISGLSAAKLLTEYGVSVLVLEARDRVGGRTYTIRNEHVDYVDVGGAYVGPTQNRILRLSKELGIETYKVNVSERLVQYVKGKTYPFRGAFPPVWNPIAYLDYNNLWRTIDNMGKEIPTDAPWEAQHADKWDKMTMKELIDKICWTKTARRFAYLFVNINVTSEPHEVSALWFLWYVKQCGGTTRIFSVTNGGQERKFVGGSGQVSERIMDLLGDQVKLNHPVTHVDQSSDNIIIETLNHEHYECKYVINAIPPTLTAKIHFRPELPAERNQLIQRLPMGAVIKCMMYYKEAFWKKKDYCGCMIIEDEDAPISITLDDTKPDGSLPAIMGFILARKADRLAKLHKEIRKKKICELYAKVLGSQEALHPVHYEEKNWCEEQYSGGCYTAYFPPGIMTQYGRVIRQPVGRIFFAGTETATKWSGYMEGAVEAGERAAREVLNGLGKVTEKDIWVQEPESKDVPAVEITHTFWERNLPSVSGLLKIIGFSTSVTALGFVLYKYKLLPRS
In kind it is functional.

Experiment [6] concerns the target T4, Alpha-1A adrenergic receptor (Homo sapiens, UniProt P35348).
T4 sequence (P35348 whole entry): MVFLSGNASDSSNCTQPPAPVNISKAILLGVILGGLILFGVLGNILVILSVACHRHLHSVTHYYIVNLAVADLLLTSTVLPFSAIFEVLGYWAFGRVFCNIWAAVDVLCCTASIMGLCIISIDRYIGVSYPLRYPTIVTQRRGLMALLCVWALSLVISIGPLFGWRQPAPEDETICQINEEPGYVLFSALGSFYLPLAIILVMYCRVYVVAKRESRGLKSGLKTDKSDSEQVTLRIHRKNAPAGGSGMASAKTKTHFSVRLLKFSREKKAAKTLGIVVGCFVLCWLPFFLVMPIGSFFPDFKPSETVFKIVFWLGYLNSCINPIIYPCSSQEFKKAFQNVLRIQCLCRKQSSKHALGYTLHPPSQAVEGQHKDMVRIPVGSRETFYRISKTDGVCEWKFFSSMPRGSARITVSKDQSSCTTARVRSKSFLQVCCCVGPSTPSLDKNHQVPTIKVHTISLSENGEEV
In kind it is functional, cell-based.

A further experiment addresses Cannabinoid receptor 1 (Homo sapiens, UniProt P21554).

By AC50 is commonly meant the midpoint of the concentration-response curve, whichever way the signal moves.

Where a SMILES comes first, the peptide text is derived from it. Where only a bound is given, the exact number is not on record here.
Note: assay procedure not described here.

Chain of Cannabinoid receptor 1 (P21554 whole entry): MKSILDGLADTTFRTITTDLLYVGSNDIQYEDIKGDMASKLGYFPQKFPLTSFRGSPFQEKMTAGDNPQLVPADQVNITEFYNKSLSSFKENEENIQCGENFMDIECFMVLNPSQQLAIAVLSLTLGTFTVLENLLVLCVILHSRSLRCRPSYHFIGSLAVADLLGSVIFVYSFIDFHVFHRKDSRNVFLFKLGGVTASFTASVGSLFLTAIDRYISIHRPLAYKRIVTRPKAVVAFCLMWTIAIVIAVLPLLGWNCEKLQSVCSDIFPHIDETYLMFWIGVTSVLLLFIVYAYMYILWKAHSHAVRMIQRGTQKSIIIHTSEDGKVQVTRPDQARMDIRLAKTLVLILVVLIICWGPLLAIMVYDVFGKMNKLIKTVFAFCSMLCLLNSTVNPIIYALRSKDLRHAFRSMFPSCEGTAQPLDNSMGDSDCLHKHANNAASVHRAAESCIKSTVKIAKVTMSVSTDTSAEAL
Chain of Mu-type opioid receptor (P35372 whole entry): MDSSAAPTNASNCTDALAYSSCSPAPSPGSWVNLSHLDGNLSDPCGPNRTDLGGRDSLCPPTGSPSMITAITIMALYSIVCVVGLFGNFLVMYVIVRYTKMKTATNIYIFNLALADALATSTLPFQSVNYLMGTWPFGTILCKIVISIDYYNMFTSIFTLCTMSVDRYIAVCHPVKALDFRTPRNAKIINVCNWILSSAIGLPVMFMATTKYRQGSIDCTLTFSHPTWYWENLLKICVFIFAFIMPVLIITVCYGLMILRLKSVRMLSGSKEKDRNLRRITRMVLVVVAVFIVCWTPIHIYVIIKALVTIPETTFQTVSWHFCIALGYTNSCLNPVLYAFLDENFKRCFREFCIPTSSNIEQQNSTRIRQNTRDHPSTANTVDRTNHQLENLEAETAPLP

For the compound `C[C@H](N)C(=O)N[C@@H](CCC(N)=O)C(=O)O` [ALANYL GLUTAMINE] (H-Ala-Gln-OH), the concentration at half-maximal activity (AC50) in experiment [1] is more than 30 µM; in experiment [2] it was more than 30 µM; in experiment [3] it was more than 30 µM; in experiment [4], more than 30 µM; at Mu-type opioid receptor, more than 30 µM; in experiment [5], 15 µM. In addition, the AC50 in experiment [6] was more than 30 µM.

For the compound `COc1cc(N)cn[n+]1-c1ccccc1` [AMEZINIUM METILSULFATE], the AC50 in experiment [1] is more than 30 µM; in experiment [2], more than 30 µM; in experiment [3] it was more than 30 µM; in experiment [4] it was more than 30 µM; on Mu-type opioid receptor, more than 30 µM; in experiment [5] it was 11 µM. Besides, half-maximal activity in experiment [6] (AC50) was put at 25 µM.

For `CO/N=C(\C(=O)N[C@@H]1C(=O)N2C(C(=O)O)=C(CSc3nc(C)c(CC(=O)O)s3)CS[C@H]12)c1csc(N)n1` [CEFODIZIME], the concentration at half-maximal activity (AC50) (in experiment [1]; in experiment [2]; in experiment [3]; in experiment [4]; on Mu-type opioid receptor; in experiment [5]) was more than 30 µM each time. In addition, the half-maximal activity concentration (AC50) in experiment [6] was more than 30 µM.

On to `CO/N=C(\C(=O)N[C@@H]1C(=O)N2C(C(=O)[O-])=C(C[n+]3ccc(N)n3CCO)CS[C@H]12)c1csc(N)n1` [CEFOSELIS], for which the AC50 (in experiment [1]; in experiment [2]; in experiment [3]; in experiment [4]; at Mu-type opioid receptor; in experiment [5]) was more than 30 µM throughout. The same compound yielded an AC50 in experiment [6] of 30 µM.

Consider `CC(=O)OCC1=C(C(=O)O)N2C(=O)[C@@H](NC(=O)CSc3ccncc3)[C@H]2SC1` [CEPHAPIRIN], for which the concentration at half-maximal activity (AC50) is more than 10 µM in experiment [1]; more than 10 µM in experiment [2]; more than 10 µM on Cannabinoid receptor 1; more than 10 µM in experiment [3]; more than 10 µM in experiment [4]; more than 30 µM at Mu-type opioid receptor. The compound also returned an AC50 in experiment [5] of more than 10 µM.

On to `CCCO[C@H]1[C@@H]([C@@H](COCc2ccc(Cl)cc2)OCc2ccc(Cl)cc2)OC(OCC)[C@@H]1O` (stereo not given in full) [CLOBENOSIDE], for which the AC50 (in experiment [1]; in experiment [2]; in experiment [3]; in experiment [4]; at Mu-type opioid receptor; in experiment [5]) was more than 30 µM throughout. Further, the concentration at half-maximal activity (AC50) in experiment [6] was more than 30 µM.

In the case of `Nc1nc(Cl)nc2c1ncn2[C@@H]1O[C@H](CO)[C@@H](O)[C@@H]1F` [CLOFARABINE], the AC50 in experiment [1] is more than 10 µM; in experiment [2], more than 30 µM; at Cannabinoid receptor 1, more than 30 µM; in experiment [3], more than 10 µM; in experiment [4], more than 30 µM; on Mu-type opioid receptor, more than 30 µM. The AC50 in experiment [5] was more than 30 µM.

For `CC(=O)Oc1cccc2c1C(=O)c1c(OC(C)=O)cc(C(=O)O)cc1C2=O` [DIACEREIN], the half-maximal activity concentration (AC50) is more than 30 µM in experiment [2]; more than 30 µM in experiment [3]; 18 µM in experiment [4]; more than 30 µM at Mu-type opioid receptor; more than 30 µM in experiment [5]; 13 µM in experiment [6].

With `OCCN(CCO)c1nc(N2CCCCC2)c2nc(N(CCO)CCO)nc(N3CCCCC3)c2n1` [DIPYRIDAMOLE], the AC50 in experiment [1] was more than 30 µM; on Cannabinoid receptor 1, more than 30 µM; in experiment [3] it was 1.4 µM; on Mu-type opioid receptor it was more than 30 µM; in experiment [5], more than 30 µM; in experiment [6] it was more than 30 µM.

Take `CCc1ccc(C(=O)C(C)CN2CCCCC2)cc1` (stereo not given) [EPERISONE]: the AC50 (in experiment [1]; at Cannabinoid receptor 1; in experiment [3]; on Mu-type opioid receptor; in experiment [5]; in experiment [6]) was more than 30 µM in each case.

Turning to `CCC1(C)CC(=O)NC1=O` (stereo not given) [ETHOSUXIMIDE], the AC50 in experiment [1] was more than 10 µM; on Cannabinoid receptor 1, more than 10 µM; in experiment [3] it was more than 10 µM; at Mu-type opioid receptor it was more than 30 µM; in experiment [5], more than 10 µM.

`N=C(N)NC(=O)Cc1c(Cl)cccc1Cl` [GUANFACINE]: the AC50 is more than 10 µM on Cannabinoid receptor 1, more than 30 µM in experiment [3], more than 30 µM at Mu-type opioid receptor and 6.88 µM in experiment [5].

`CCC(NC(C)C)C(O)c1ccc(O)c(O)c1` (stereo not given) [ISOETHARINE]: the AC50 (in experiment [1]; in experiment [2]; at Cannabinoid receptor 1; in experiment [3]; in experiment [4]; at Mu-type opioid receptor) was more than 30 µM each time. This compound registered an AC50 in experiment [5] of more than 30 µM.

Take `CCN(CC)Cc1nccn1-c1ccc([N+](=O)[O-])cc1C(=O)c1ccccc1Cl` [NIZOFENONE]: the AC50 was more than 30 µM in experiment [1]; more than 10 µM in experiment [2]; more than 30 µM in experiment [3]; more than 30 µM in experiment [4]; more than 30 µM at Mu-type opioid receptor; more than 30 µM in experiment [5]. Also, in experiment [6], the AC50 was more than 30 µM.

In the case of `CCOC(=O)O[C@]1(C(=O)COC(=O)CC)CC[C@H]2[C@@H]3CCC4=CC(=O)C=C[C@]4(C)[C@H]3[C@@H](O)C[C@@]21C` [PREDNICARBATE], the AC50 in experiment [1] was more than 10 µM; in experiment [2], more than 10 µM; on Cannabinoid receptor 1 it was more than 10 µM; in experiment [3], more than 10 µM; in experiment [4], more than 10 µM; at Mu-type opioid receptor, more than 30 µM. In experiment [5], this compound displayed an AC50 of more than 10 µM.

Take `CCCCOC(=O)C(=O)Nc1cccc(-c2nnn[nH]2)c1` [TAZANOLAST]: the half-maximal activity concentration (AC50) (in experiment [1]; in experiment [2]; in experiment [3]; in experiment [4]; at Mu-type opioid receptor; in experiment [5]) was more than 30 µM in each case. The compound also displayed an AC50 in experiment [6] of more than 30 µM.

As to `Cc1cccc(Nc2ccncc2S(=O)(=O)NC(=O)NC(C)C)c1` [TORSEMIDE], the AC50 is more than 10 µM in experiment [1]; more than 10 µM at Cannabinoid receptor 1; more than 10 µM in experiment [3]; more than 30 µM at Mu-type opioid receptor; more than 10 µM in experiment [5].

As for `CC1=C(/C=C/C(C)=C/C=C/C(C)=C/C(=O)Oc2c(C)c(C)c3c(c2C)CCC(C)(CCCC(C)CCCC(C)CCCC(C)C)O3)C(C)(C)CCC1` (stereo not given) [TRETINOIN TOCOFERIL], the half-maximal activity concentration (AC50) (in experiment [1]; in experiment [2]; in experiment [3]; in experiment [4]; on Mu-type opioid receptor; in experiment [5]) was more than 30 µM in each case. In experiment [6], this compound displayed a half-maximal activity concentration (AC50) of more than 30 µM.

On to `CN(C)CCOCC(=O)NC12CC3CC(CC(C3)C1)C2` [TROMANTADINE], for which the half-maximal activity concentration (AC50) (in experiment [1]; in experiment [2]; in experiment [3]; in experiment [4]; at Mu-type opioid receptor; in experiment [5]) was more than 30 µM in each case. Besides, the AC50 in experiment [6] was more than 30 µM.

Regarding SITOSTEROLS, the half-maximal activity concentration (AC50) (in experiment [1]; in experiment [2]; in experiment [3]; in experiment [4]; on Mu-type opioid receptor; in experiment [5]) was more than 30 µM in each case. In addition, the half-maximal activity concentration (AC50) in experiment [6] is more than 30 µM.
